Literature values in US6335361B1, “Method of treating benign forgetfulness” (Juvenon Inc., priority 1999, dated 2002).
Like-named read-outs stand apart in the source and are kept apart here.

Key:
[1] = men over 60, 5 days
[2] = older adults 67-80 years, 8 weeks
mitochondria [3] = test system: mitochondria
[4] = test system: oxidative phosphorylation in skeletal muscles and brains; conditions: patients with mitochondrial cytopathies due to enzyme defects
mice = conditions: male mice, life-long supplementation
striatal nerves = conditions: mice, Q10 diet four weeks before and one week after MPTP
[5] = test system: human plasma LDL phospholipids; conditions: healthy Finnish men and women, Q10 supplementation
mitochondria [6] = conditions: through action in the mitochondria
[7] = daily supplements up to 200 mg for 6-12 months and 100 mg daily for up to 6 y
[8] = woman deficient in Q10, 150 mg/kg
oxidant production = conditions: carnitine supplementation

SMILES: CN(CC(=O)O)C(=N)N [creatine]
- isokinetic performance and body mass [1]: only small increases
- isometric strength [1]: no effect
- 1- and 12-repetitions maxima, effect of creatine supplementation [2]: no beneficial effect
- time to exhaustion (phosphocreatine (PCr); both groups combined): increased
- increase of resting PCr (phosphocreatine (PCr); middle-aged group (50-year-olds), P<0.05): 30%
- mean initial PCr resynthesis rate (phosphocreatine (PCr); middle-aged group, P<0.05): increased significantly
- increase of resting PCr (phosphocreatine (PCr); young group (30-year-olds), P<0.05): 15%
- safety (1.5 g-25 g/day for at least a year): safe
- adverse effects (athletes, up to 75 grams a day for years, aside from weight gain): without known adverse effects
- skeletal muscle strength and endurance (older individuals (40-73), 20 g/day, one week): increased

SMILES: CC(=O)O[C@H](CC(=O)[O-])C[N+](C)(C)C [ALC, acetyl-L-carnitine]
- age-related decrease in cardiolipin, mtDNA transcription and membrane potential (mitochondria [3]): reverse
- age-related dysfunction of carnitine-acetyl-carnitine exchange across the inner mitochondrial membrane (mitochondria [3]): slow or reverse

SMILES: O=C(O)CCCC[C@@H]1CCSS1 [R-α-alipoic acid, R-α-lipoic acid]
- ambulatory activity of aged rats (aged rats; aged rats): triple
- age-related decline in mitochondrial membrane potential (aged rats; rat, in vivo): restore
- age-related decrease in oxygen consumption (aged rats; rat, in vivo): reverse
- age-related increase in oxidants (aged rats; rat, in vivo): significantly lower
- glutathione and ascorbic acid levels (aged rats; rat, in vivo): to youthful levels

SMILES: COC1=C(OC)C(=O)C(C/C=C(\C)CC/C=C(\C)CC/C=C(\C)CC/C=C(\C)CC/C=C(\C)CC/C=C(\C)CC/C=C(\C)CC/C=C(\C)CC/C=C(\C)CCC=C(C)C)=C(C)C1=O [Q10, Coenzyme Q10]
- oxidative phosphorylation in skeletal muscles and brains [4]: marked improvement
- Q10 levels in kidney, heart and brain (rats; Q10 supplementation): not affected
- lifespan (rats; male rats, life-long supplementation): did not prolong or shorten
- plasma and liver levels (rats; supplemented rats): 2.6-8.4 times higher
- lifespan (mice): did not prolong or shorten
- dopamine, higher than control diet (striatal nerves): 37%
- more dense neurons than control diet (striatal nerves): 62%
- peroxyl radical-trapping capacity [5]: doubled
- programmed cell death, or apoptosis (mitochondria [6]): appears to block
- adverse effects [7]: No important adverse effects
- clinical response [8]: rapidly improved
- effect on doxorubicin-induced oxidant production and mtDNA deletions (cardiac tissue; cardiac tissue): blocks the effects of doxorubicin

SMILES: COc1c(O)c(C)c(C/C=C(\C)CC/C=C(\C)CC/C=C(\C)CC/C=C(\C)CC/C=C(\C)CC/C=C(\C)CC/C=C(\C)CC/C=C(\C)CC/C=C(\C)CCC=C(C)C)c(O)c1OC [ubiquinol-10]
- oxidative damage to DNA of human lymphocytes (human lymphocytes): appears to protect

SMILES: C[N+](C)(C)CC(O)CC(=O)[O-] (stereo not drawn) [carnitine]
- cell antioxidants (oxidant production): decreased cell antioxidants markedly
- increase of oxidant production (oxidant production): 30%

SMILES: COc1cccc2c1C(=O)c1c(O)c3c(c(O)c1C2=O)C[C@@](O)(C(=O)CO)C[C@@H]3O[C@H]1C[C@H](N)[C@H](O)[C@H](C)O1 [doxorubicin]
- mitochondrial oxidant production (cardiac tissue; doxorubicin by itself): stimulates
- mtDNA deletions in cardiac tissue (cardiac tissue; doxorubicin by itself): marked increase

SMILES: C[N+](C)(C)C[C@H](O)CC(=O)[O-] [L-carnitine]
- age-related decrease in cardiolipin, mtDNA transcription and membrane potential (mitochondria [3]): reverse
- age-related dysfunction of carnitine-acetyl-carnitine exchange across the inner mitochondrial membrane (mitochondria [3]): slow or reverse
